Measurements published in US10738062B2, “Chromane-substituted tetracyclic compounds and uses thereof for the treatment of viral diseases” (Merck Sharp & Dohme Corp., priority 2016, dated 2020).
Like-named read-outs stand apart in the source and are kept apart here.

Key:
Set-up in all cases: species or system Hepatitis C virus
HCV replicon 2B = test: Cell-based HCV replicon assay (Replicon Assay A), replicon 2B; conditions: replicon RNA by real time PCR, day 3
Description: (§1) To measure cell-based anti-HCV activity of compounds of the present invention, two complimentary assays were employed using various replicons. In the first assay (“Replicon Assay A”), replicon cells were seeded at 2000 cells/well in 384-well 384-well flat bottom tissue culture treated clear bottom plate (Corning 3707) in the presence of the test compound. Various concentrations of test compound, typically in 10 serial dilutions, were added to the assay mixture, with the starting concentration ranging from 333.3 nM to 1.667 nM. The final concentration of DMSO was 0.5%. Fetal bovine serum was 5%, in the assay media. Cells were harvested on day 3 by removing media and washing the cells with a suitable wash buffer. The cells were lysed with the addition of 1× Qiagen lysis buffer (Cat #1062731). The replicon RNA level was measured using real time PCR (TaqMan® EZ RT-PCR, Applied Biosystems 403028) with the following primers and probes: […]
(§2) Cyclophilin RNA was used as endogenous control and was amplified in the same reaction as NS5B (multiplex PCR). The real-time RT-PCR reactions were run on ABI PRISM 7900HT Sequence Detection System using the following program: 50° C. for 2 minutes, 60° C. for 30 minutes, 95° C. for 5 minutes, 40 cycles of 94° C. for 20 sec, 55° C. for 1 minutes.
(§3) The amount of HCV replicon RNA per cell was quantified using a linear regression curve for a known nanogram (ng) amount of HCV replicon total RNA. This was established by plotting the Cycle Threshold values (Ct) from the Neo probe and primer set versus the log (ng) for each HCV replicon total RNA standard. The amount of HCV RNA for each replicon sample was calculated by taking the sample's Ct value, minus the line intercept, divided by the slope of the line. Similarly, the amount of Cyclophilin mRNA per cell was also quantified using a linear regression curve for a known nanogram (ng) amount of HCV replicon total RNA. Again, this was established by plotting the Cycle Threshold values (Ct) from the Cyclophilin probe and primer set versus the log (ng) for each HCV replicon total RNA standard.
(§4) The real-time RT-PCR reactions were run on ABI PRISM 7900HT or Viia7 Sequence Detection System using the following program: 48° C. for 30 minutes, 95° C. for 10 minutes, 40 cycles of 95° C. for 15 sec, 60° C. for 1 minutes. The 50% effective concentration (EC50) was the drug concentration necessary to achieve an increase in the cycle threshold (CT) of 1 over the projected baseline CT.
(§5) Data was obtained for various compounds of the present invention using the methods described in the Example above, and is presented in the table immediately below. EC50 data for replicons 1A, 1AY93H and 2B were obtained using Replicon Assay A and EC50 data for replicon 1B was obtained using Replicon Assay B.

HCV replicon 1A Y93H = test: Cell-based HCV replicon assay (Replicon Assay A), replicon 1AY93H; conditions: read-out: EC50 replicon 1A Y93H; Replicon Assay A; replicon RNA by real time PCR, day 3
Description: as §1, §2, §3, §4, §5

HCV replicon 1A = test: Cell-based HCV replicon assay (Replicon Assay A), replicon 1A; conditions: replicon RNA by real time PCR, day 3
Description: as §1, §2, §3, §4, §5

[1] = read-out: EC50 replicon 2B, Replicon Assay A
[2] = Hepatitis C virus, 72 h, read-out: EC50 replicon 2B, Replicon Assay A

| Structure (SMILES) | EC50 (HCV replicon 2B; [1]) | EC50 (HCV replicon 1A Y93H) | EC50 (HCV replicon 1A) | EC50 (HCV replicon 1A; Hepatitis C virus, 72 h) | EC50 (HCV replicon 2B; [2]) |
| --- | --- | --- | --- | --- | --- |
| COC(=O)N[C@H](C(=O)N1CCC[C@H]1c1ncc(-c2cc(F)c3c(c2)OC(c2ccc4c(c2)CCCO4)n2c-3cc3cc(-c4cnc([C@@H]5CCCN5C(=O)[C@@H](NC(=O)OC)C(C)C)[nH]4)ccc32)[nH]1)C(C)C (single isomer, unassigned) [Compound 24] | 1.77 nM | 0.282 nM | 0.0016 nM |  |  |
| COC(=O)N[C@H](C(=O)N1CCC[C@H]1c1ncc(-c2cc(F)c3c(c2)OC(c2ccc4c(c2)OCC4)n2c-3cc3cc(-c4cnc([C@@H]5C[C@H]6C[C@H]6N5C(=O)[C@@H](NC(=O)OC)C(C)C)[nH]4)ccc32)[nH]1)C(C)C (single isomer, unassigned) [Compound 47] | 4.32 nM | 4.52 nM |  |  |  |
| COC(=O)N[C@H](C(=O)N1CCC[C@H]1c1ncc(-c2cc(F)c3c(c2)OC(c2ccc4c(c2)OCCC4)n2c-3cc3cc(-c4cnc([C@@H]5C[C@@H](F)CN5C(=O)[C@@H](c5ccccc5)N5CCC5)[nH]4)ccc32)[nH]1)C(C)C (single isomer, unassigned) [Compound 37] |  | 15.2 nM | 0.187 nM |  |  |
| COC(=O)N[C@H](C(=O)N1CCC[C@H]1c1ncc(-c2cc(F)c3c(c2)OC(c2ccc4c(c2)OCCC4)n2c-3cc3cc(-c4cnc([C@@H]5C[C@@H](F)CN5C(=O)[C@@H](c5ccccc5)N5CCC5)[nH]4)ccc32)[nH]1)C(C)C (single isomer, unassigned) [Compound 38] |  | 6.65 nM | 0.0052 nM |  |  |
| COC(=O)N[C@H](C(=O)N1CCC[C@H]1c1ncc(-c2ccc3c(c2)OC(c2ccc4c(c2)OCCC4)n2c-3cc3cc(-c4cnc([C@@H]5C[C@H]6C[C@H]6N5C(=O)[C@@H](NC(=O)OC)C(C)C)[nH]4)ccc32)[nH]1)C(C)C (single isomer, unassigned) [Compound 49] | 0.817 nM | 2.44 nM |  | 0.0016 nM |  |
| COC(=O)NC(C(=O)N1[C@@H]2C[C@@H]2C[C@H]1c1ncc(-c2ccc3c(c2)cc2n3C(c3ccc4c(c3)OCCC4)Oc3cc(-c4cnc([C@@H]5CCCN5C(=O)[C@@H](NC(=O)OC)C(C)C)[nH]4)cc(F)c3-2)[nH]1)C1C[C@@H](C)O[C@@H](C)C1 (single isomer, unassigned) [Compound 67] | 0.607 nM | 0.391 nM |  | 0.0012 nM |  |
| COC(=O)N[C@H](C(=O)N1CCC[C@H]1c1ncc(-c2cc(F)c3c(c2)OC(c2ccc4c(c2)OC(C)CC4)n2c-3cc3cc(-c4cnc([C@@H]5CCCN5C(=O)[C@@H](NC(=O)OC)C(C)C)[nH]4)ccc32)[nH]1)C(C)C (single isomer, unassigned) [Compound 12] | 1.9 nM | 6.73 nM | 0.0016 nM |  |  |
| COC(=O)N[C@H](C(=O)N1CCC[C@H]1c1ncc(-c2cc(F)c3c(c2)OC(c2ccc4c(c2)CCCO4)n2c-3cc3cc(-c4cnc([C@@H]5C[C@H]6C[C@H]6N5C(=O)[C@@H](NC(=O)OC)C(C)C)[nH]4)ccc32)[nH]1)C(C)C (single isomer, unassigned) [Compound 45] |  | 0.12 nM | 0.001 nM |  | 5.28 nM |
| COC(=O)NC(C(=O)N1[C@@H]2C[C@@H]2C[C@H]1c1ncc(-c2ccc3c(c2)cc2n3C(c3ccc4c(c3)CCCO4)Oc3cc(-c4cnc([C@@H]5CCCN5C(=O)[C@@H](NC(=O)OC)C(C)C)[nH]4)cc(F)c3-2)[nH]1)C1C[C@@H](C)O[C@@H](C)C1 (single isomer, unassigned) [Compound 66] | 2.35 nM | 0.172 nM | 0.0034 nM |  |  |
| COC(=O)N[C@H](C(=O)N1CCC[C@H]1c1ncc(-c2cc(F)c3c(c2)OC(c2ccc4c(c2)CCC(C)(C)O4)n2c-3cc3cc(-c4cnc([C@@H]5CCCN5C(=O)[C@@H](NC(=O)OC)C(C)C)[nH]4)ccc32)[nH]1)C(C)C (single isomer, unassigned) [Compound 22] | 0.93 nM | 0.162 nM | 0.0027 nM |  |  |
| COC(=O)N[C@H](C(=O)N1CCC[C@H]1c1ncc(-c2cc(F)c3c(c2)OC(c2ccc4c(c2)OC(C)(C)CC4)n2c-3cc3cc(-c4cnc([C@@H]5CCCN5C(=O)[C@@H](NC(=O)OC)C(C)C)[nH]4)ccc32)[nH]1)C(C)C (single isomer, unassigned) [Compound 18] | 0.252 nM | 0.052 nM |  | 0.0022 nM |  |
| COC(=O)NC(C(=O)N1CCC[C@H]1c1ncc(-c2ccc3c(c2)cc2n3C(c3ccc4c(c3)OCCC4)Oc3cc(-c4cnc([C@@H]5CCCN5C(=O)[C@@H](NC(=O)OC)C(C)C)[nH]4)cc(F)c3-2)[nH]1)C(C)(C)F (single isomer, unassigned) [Compound 44] | 4.91 nM |  |  |  |  |
| COC(=O)N[C@H](C(=O)N1CCC[C@H]1c1ncc(-c2cc(F)c3c(c2)OC(c2ccc4c(c2)CCCO4)n2c-3cc3cc(-c4cnc([C@@H]5C[C@H]6C[C@H]6N5C(=O)[C@@H](NC(=O)OC)C(C)C)[nH]4)ccc32)[nH]1)C(C)C (single isomer, unassigned) [Compound 46] | 7.71 nM | 4.13 nM | 0.0026 nM |  |  |
| COC(=O)N[C@H](C(=O)N1CCC[C@H]1c1ncc(-c2cc(F)c3c(c2)OC(c2ccc4c(c2)OCCC4C)n2c-3cc3cc(-c4cnc([C@@H]5CCCN5C(=O)[C@@H](NC(=O)OC)C(C)C)[nH]4)ccc32)[nH]1)C(C)C (single isomer, unassigned) [Compound 9] | 0.772 nM | 0.949 nM | 0.0026 nM |  |  |
| COC(=O)N[C@H](C(=O)N1CCC[C@H]1c1ncc(-c2cc(F)c3c(c2)OC(c2ccc4c(c2)CC2CC2(C)O4)n2c-3cc3cc(-c4cnc([C@@H]5CCCN5C(=O)[C@@H](NC(=O)OC)C(C)C)[nH]4)ccc32)[nH]1)C(C)C (single isomer, unassigned) [Compound 26] | 1.41 nM | 0.344 nM | 0.0028 nM |  |  |
| COC(=O)NC(C(=O)N1CCC[C@H]1c1ncc(-c2ccc3c(c2)cc2n3C(c3ccc4c(c3)CCCO4)Oc3cc(-c4cnc([C@@H]5CCCN5C(=O)[C@@H](NC(=O)OC)C(C)C)[nH]4)cc(F)c3-2)[nH]1)C1C[C@@H](C)O[C@@H](C)C1 (single isomer, unassigned) [Compound 73] | 0.791 nM | 1.36 nM |  | 0.0031 nM |  |
| CCN(CC)[C@@H](C(=O)N1[C@@H]2C[C@@H]2C[C@H]1c1ncc(-c2ccc3c(c2)cc2n3C(c3ccc4c(c3)OCCC4)Oc3cc(-c4cnc([C@@H]5CCCN5C(=O)[C@@H](NC(=O)OC)C5CCOCC5)[nH]4)cc(F)c3-2)[nH]1)c1ccccc1 (single isomer, unassigned) [Compound 53] | 0.379 nM |  |  |  |  |
| COC(=O)NC(C(=O)N1CCC[C@H]1c1ncc(-c2ccc3c(c2)cc2n3C(c3ccc4c(c3)OC(C)CC4)Oc3cc(-c4cnc([C@@H]5CCCN5C(=O)[C@@H](NC(=O)OC)C(C)C)[nH]4)cc(F)c3-2)[nH]1)C1CCOC(C)(C)C1 (single isomer, unassigned) [Compound 61] | 0.215 nM | 1.49 nM |  | 0.0023 nM |  |
| COC(=O)N[C@H](C(=O)N1CCC[C@H]1c1ncc(-c2cc(F)c3c(c2)OC(c2ccc4c(c2)OC(C)(C)CC4)n2c-3cc3cc(-c4cnc([C@@H]5CCCN5C(=O)[C@@H](NC(=O)OC)C(C)C)[nH]4)ccc32)[nH]1)C(C)C (single isomer, unassigned) [Compound 17] | 5.21 nM | 11.8 nM |  |  |  |
| COC(=O)N[C@H](C(=O)N1CCC[C@H]1c1ncc(-c2cc(F)c3c(c2)OC(c2ccc4c(c2)OCCC4)n2c-3cc3cc(-c4cnc([C@@H]5C[C@H]6C[C@H]6N5C(=O)[C@@H](c5ccccc5)N5CCC5)[nH]4)ccc32)[nH]1)C1CCOCC1 (single isomer, unassigned) [Compound 72] | 3.3 nM |  |  |  |  |
| COC(=O)NC(C(=O)N1CCC[C@H]1c1ncc(-c2ccc3c(c2)cc2n3C(c3ccc4c(c3)OCCC4)Oc3cc(-c4cnc([C@@H]5CCCN5C(=O)[C@@H](NC(=O)OC)C(C)C)[nH]4)cc(F)c3-2)[nH]1)C(C)(C)F (single isomer, unassigned) [Compound 41] | 4.13 nM |  |  |  |  |
| COC(=O)N[C@H](C(=O)N1CCC[C@H]1c1ncc(-c2cc(F)c3c(c2)OC(c2ccc4c(c2)OCCC4)n2c-3cc3cc(-c4cnc([C@@H]5C[C@H]6C[C@H]6N5C(=O)[C@@H](c5ccccc5)N5CCC5)[nH]4)ccc32)[nH]1)C1CCOCC1 (single isomer, unassigned) [Compound 71] |  |  |  |  | 5.13 nM |
